Assay results published in PMC8065100, “How cyanophage S-2L rejects adenine and incorporates 2-aminoadenine to saturate hydrogen bonding in its DNA” (Nature Communications, 2021).

How the values were obtained:
[1] = biological target: T1, DatZ (S-2L HD phosphohydrolase) (Cyanophage S-2L, UniProt A0A7U3TCA2); assay: X-ray crystal structure; hydrolysis to dA seen by HPLC; assay type: binding; conditions: crystals grown with 10 mM EDTA, pH 7; active site; partially occupied Zn2+ in site A; HPLC assay: 20 mM Tris pH 7, 5 mM MgCl2, 37 °C
T1 construct: full length 175 aa, synthetic codon-optimised gene, N-terminal 14-His tag removed by TEV, E. coli host, hexamer (D3)

[2] = biological target: S-2L DatZ (dATP triphosphohydrolase, HD-domain phosphohydrolase of cyanophage S-2L) (cyanophage S-2L); assay: AUC + other: DLS; in vitro; stoichiometry worked out assuming a perfectly globular shape; conditions not given

## Nc1ncnc2c1ncn2[C@H]1C[C@H](O)[C@@H](COP(=O)(O)OP(=O)(O)OP(=O)(O)O)O1 [dATP]
[1]
  X-ray crystal structure; hydrolysis to dA seen by HPLC: we solved a third structure of DatZ, this time with bound dATP (PDB ID: 6ZPC

## S-2L DatZ (dATP triphosphohydrolase, HD-domain phosphohydrolase of cyanophage S-2L) (enzyme)
[2]
  stoichiometry N (protomers per oligomer): 5.9
